Experimental data reported in US12014835B2, “Methods for evaluating therapeutic benefit of combination therapies” (Vanderbilt University, priority 2020, dated 2024).

Experiments:
Type in all cases: cell-based
A2058 = test: MuSyC analysis of PLX4720 in combination with NOX5 inhibitor DPI; conditions: in combination with PLX4720, A2058 cell line
Source text: FIG. 4E depicts pairwise comparison between SC01 and SC10 of DEGs (FDR<0.001) identified using DESeq2 (Love, M. I. et al., Genome Biol. (2014) Vol. 15, p. 550). The 200 identified DEGs (ANOVA between three subclones) are in black. The dotted red lines denote ±4-fold change. FIG. 4F depicts the dose-response surface for PLX4270 plus DPI (a NOX5 inhibitor) in the A2058 cell line, using the same format as in FIGS. 2B and 2C.
FIGS. 4G, 4H, and 4I depict additional MuSyC analysis of the effect of the combination therapy with PLX4270 and DPI. FIG. 4G depicts a DSD for NOX5i (DPI) plus BRAFi (PLX4720). FIG. 4H depicts the correlation (Pearson r) of NOX5 expression with observed synergistic efficacy (βobs). FIG. 4I depicts the correlation (Pearson r) of NOX5 expression with synergistic potency, where α2 is DPI's effect on PLX4720 potency. Error bars represent parameter uncertainty calculated in MCMC fitting.
To study NOX5's contribution to the potency or efficacy of BRAFi, PLX4720 was tested in combination with a NOX5 inhibitor, DPI, in a panel of 7 melanoma cell lines selected based on differential NOX5 expression. […] See also, Meyer et al. in Cell Systems (2010) vol 8, pages 97-108, which is hereby incorporated by reference for all purposes.

PC9 cells = test: MuSyC drug combination screen with osimertinib, DIP rate, high-throughput in vitro assay; conditions: for synergistic efficacy (in words): drug-synergy diagram; for observed synergistic efficacy (βobs): at the maximum tested dose range
Protocol: FIG. 2A illustrates a high-throughput pipeline for generating dose-response surfaces. Initial drug matrix is prepared on a 384-well plate and transferred to cells seeded at subconfluent densities. Cells are engineered to express a fluorescently tagged histone (H2B-RFP), allowing for cell counts using automated segmentation software. Each condition is imaged every 6-8 h, resulting in growth curves. The growth curves are fit to determine the drug-induced proliferation (DIP) rate (slope of dotted line, vide infra) to quantify drug effect. This matrix of DIP rates is fit to our equation to extract synergy parameters.
MuSyC was applied to evaluate the synergistic potency and efficacy of a 64-drug panel (see Table 1 for drugs, drug classes, nominal targets, and tested concentration ranges) in combination with osimertinib, a mutant EGFR-tyrosine kinase inhibitor recently approved for first-line treatment of EGFR-mutant NSCLC. The selected drugs span a diverse array of cellular targets that can be broadly grouped into four categories: kinases, receptors and channels, epigenetic regulators, and mitotic checkpoints, each with several sub-categories. The combinations were tested in PC9 cells, a canonical model of EGFR-mutant NSCLC using a high-throughput, in vitro, drug-screening assay (FIG. 2A).
Applying this algorithm, synergy parameters (α1, α2, and βobs) were extracted from fitted surfaces for all osimertinib combinations (βobs is the observed synergistic efficacy at the maximum tested dose range).

A2058_SKIN = test: BRAFi sensitivity, DIP rate
Protocol: (§1) FIGS. 4A, 4B, and 4C depict data used to identify and characterize the top 200 differentially expressed genes (DEGs) between subclones of a BRAF-mutant melanoma cell line (SKMEL5) with differential sensitivity to BRAFi. FIG. 4A depicts growth curves of differentially sensitive, single-cell-derived subclones from SKMEL5 treated with 8 μM PLX4720. Gray curves represent colony growth according to the clonal fractional proliferation assay (Tyson, D. R. et al., Nature Methods (2012) Vol. 9, pp. 923-928). The average population response is indicated in the black curve. SC01, SC07, and SC10 were subsequently used to identify 200 DEGs. FIG. 4B depicts the top gene set enrichment terms for the identified 200 DEGs. FIG. 4C depicts a distribution of the correlation between the identified 200 DEGs' expression and BRAFi insensitivity. Drug sensitivity was quantified as DIP rate measured in 8 μM PLX4720. The threshold of p value <0.05 is annotated in pink.
(§2) Specifically, gene expression was quantified using RNA sequencing (RNA-seq) and the top 200 differentially expressed genes (DEGs) (FDR<0.001) were identified. […] The correlation was computed of the 200 DEGs' expression to BRAFi sensitivity across a 10-cell-line panel using expression data from Subramanian, A. et al. (2017). in Cell vol. 171, 1437-1452.e17.

A375_SKIN = test: BRAFi sensitivity, DIP rate
Protocol: as §1, §2

SKMEL28_SKIN = test: BRAFi sensitivity, DIP rate
Protocol: as §1, §2

SKMEL5_SKIN = test: BRAFi sensitivity, DIP rate
Protocol: as §1, §2

WM115_SKIN = test: BRAFi sensitivity, DIP rate
Protocol: as §1, §2

WM1799_SKIN = test: BRAFi sensitivity, DIP rate
Protocol: as §1, §2

WM2664_SKIN = test: BRAFi sensitivity, DIP rate
Protocol: as §1, §2

WM793_SKIN = test: BRAFi sensitivity, DIP rate
Protocol: as §1, §2

WM88_SKIN = test: BRAFi sensitivity, DIP rate
Protocol: as §1, §2

WM983B_SKIN = test: BRAFi sensitivity, DIP rate
Protocol: as §1, §2

[1] = in combination with osimertinib, PC9 cells

c1ccc2c(c1)[I+]c1ccccc1-2 [DPI]
observed synergistic efficacy (βobs) (A2058): 1.42 ±0.05

COC(=O)Nc1nc2ccc(Oc3ccc(NC(=O)Nc4ccccc4)cc3)cc2[nH]1 [GW694590a]
synergistic efficacy (in words) (PC9 cells; [1]): synergistically efficacious

CCCS(=O)(=O)Nc1ccc(F)c(C(=O)c2c[nH]c3ncc(Cl)cc23)c1F [PLX4270]
DIP Rate at [8 uM] PLX4270 (A2058_SKIN): 0.030 h⁻¹ | DIP Rate at [8 uM] PLX4270 (A375_SKIN): 0.005 h⁻¹ | DIP Rate at [8 uM] PLX4270 (SKMEL28_SKIN): 0.010 h⁻¹ | DIP Rate at [8 uM] PLX4270 (SKMEL5_SKIN): 0.014 h⁻¹ | DIP Rate at [8 uM] PLX4270 (WM115_SKIN): 0.013 h⁻¹ | DIP Rate at [8 uM] PLX4270 (WM1799_SKIN): -0.002 h⁻¹ | DIP Rate at [8 uM] PLX4270 (WM2664_SKIN): 0.003 h⁻¹ | DIP Rate at [8 uM] PLX4270 (WM793_SKIN): 0.015 h⁻¹ | DIP Rate at [8 uM] PLX4270 (WM88_SKIN): -0.020 h⁻¹ | DIP Rate at [8 uM] PLX4270 (WM983B_SKIN): 0.021 h⁻¹

CN(C)c1ccc(C(=O)NCCCCCCC(=O)NO)cc1 [M344]
increase in efficacy over osimertinib alone (PC9 cells; [1]): 125% | synergistic potency log(α2): how osimertinib's potency is modulated by the drug (PC9 cells; [1]): −0.90±0.01 | observed synergistic efficacy (βobs) (PC9 cells; [1]): 1.25±0.03

Cn1cc(CNCC2CCN(c3ncc(C(=O)NO)cn3)CC2)c2ccccc21 [quisinostat]
total efficacy of the combination (in words) (PC9 cells; in combination with osimertinib, NSCLC screen): greatest total efficacy

CCCCc1oc2ccc(NS(C)(=O)=O)cc2c1C(=O)c1ccc(OCCCN(CCCC)CCCC)cc1 [dronedarone]
synergistic efficacy (in words) (PC9 cells; [1]): most antagonistic

Cc1cc(Nc2ncc(Cl)c(Nc3ccccc3S(=O)(=O)C(C)C)n2)c(OC(C)C)cc1C1CCNCC1 [ceritinib]
EC50 (PC9 cells; Homo sapiens, PC-9, single agent, PC9 cells, DIP rate): 2020 nM | synergistic potency log(α2): how osimertinib's potency is modulated by the drug (PC9 cells; [1]): 6.25±0.50 | observed synergistic efficacy (βobs) (PC9 cells; [1]): 0.28 ±0.003

CC[C@]1(O)C[C@@H]2CN(CCc3c([nH]c4ccccc34)[C@@](C(=O)OC)(c3cc4c(cc3OC)N(C)[C@H]3[C@@](O)(C(N)=O)[C@H](O)[C@]5(CC)C=CCN6CC[C@]43[C@@H]65)C2)C1 [vindesine]
synergistic efficacy (in words) (PC9 cells; [1]): upward shift along the axis of synergistic efficacy

Nc1ccccc1NC(=O)c1ccc(CNC(=O)OCc2cccnc2)cc1 [entinostat]
observed synergistic efficacy (βobs) (PC9 cells; [1]): 0.84±0.027
